Paper PMC9306587 (European Journal of Immunology, 2022)

Legend:
[1] = target: T1, HLA-E*01:03 (Homo sapiens, UniProt P13747); assay: pHLA-E complex stability by SPR (ILT2 binding over time); settings: for t1/2: Table S2, SPR BIAcore T200, biotinylated pHLA-E monomers on streptavidin CM5 chip, 1 μM soluble ILT2 at regular intervals over 5 h, 25°C
T1 construct: made in house
Description: HLA‐E heavy chain (without transmembrane domain and with or without a C‐terminal biotinylation tag, AviTagsequence) and β2m were expressed and refolded with the peptide of interest and subsequently purified, as previously described. To biotinylate complexes prior to size exclusion chromatography, complexes were AviTag treated with biotin‐protein ligase (BirA) according to the manufacturer's instructions (Avidity BirA‐500 kit).
The stability of all pHLA‐E complexes was assessed by SPR using a BIAcore T200 instrument. Purified biotinylated pHLA‐E monomers (HLA‐E*01:03 was used throughout) were immobilized onto a streptavidin‐coupled CM5 sensor chip. A total of 1 μM of soluble ILT2 was flowed over the chip at 10 μL/min for 60 s. ILT2 binding to pHLA‐E complexes was measured at regular intervals over 5 h and responses were normalized by subtracting the bulk buffer response of a control flow cell containing no pHLA. Binding t 1/2 was calculated by plotting % activity against time using the Biacore T200 evaluation software version 3.0 and GraphPad Prism version 8.3.0.

[2] = target: T2, HLA-ES147C (Homo sapiens, UniProt P13747, S168C); type: binding
T2 construct: made in house

[3] = target: T1, HLA-E*01:03; assay: pHLA Thermofluor (thermal shift) assay; type: binding; settings: Table S2; SYPRO Orange thermal shift, pHLA 0.25 mg/mL in PBS, 10 to 95°C at 1°C/min, triplicate; two independent experiments
Description: Thermal shift assay experiments were performed using a RT‐PCR instrument (Quantstudio 6, Applied Biosystems). SYPRO Orange protein gel stain (5000× stock solution) was diluted in PBS to yield a 75× working solution. In a 96‐well plate, 23 μL of pHLA at 0.25 mg/mL was added to 2 μL of SYPRO Orange working solution to a final volume of 25 μL, with each pHLA prepared in triplicate. Mixtures were heated from 10 to 95°C with a temperature increment of 1°C/min. Fluorescence was detected using the FAM filter set, with excitation and emission wavelength at 495 and 518 nm, respectively. Data analysis was performed using Protein Thermal Shift Software version 1.4 (Thermofisher Scientific) to determine Tm.

## VMAPRTLLL [LA13-11]
[1]
  t1/2: 2.8 h
[1]; representative of at least two independent experiments
  t1/2: 2.8 h
[1]; Table S4, SPR with ILT2 over 5 h
  t1/2(hours) HLA-E: 2.8 h
[2]
  t1/2(hours) HLA-ES147C(H3C): 16.74 h
[3]
  Average Tm: 47.87 °C
